Data as given in EP1836906B1, “Healthy food product” (Unilever N.V., priority 2006, dated 2009).
Where two headings read alike, the source gives them in different places. Ends that are not written are not given here.

Legend:
[1] = pH 6.5
Description: (§1) Peptides for use in food products according to the invention are water-insoluble in water at 20°C and a pH of 6.5. This can for example be evidenced by mixing 10 mg of the peptide into 10 ml of de-mineralised water at 20°C and pH 6.5, and stirring. A (measurable) turbid appearance of the solution after stirring is indicative of the fact that the peptide is water-insoluble.

[2] = Water solubility test (turbid appearance of 10 mg peptide in 10 ml de-mineralised water); conditions: water at 20 C and pH 6.5
Description: as §1

| Compound | Peptide category (substantially water-insoluble or soluble) [1] | Peptide category (substantially water-insoluble or soluble) [2] |
| --- | --- | --- |
| DDDDDD [DDDDDD, reference compound] | – | Soluble peptides |
| EAEWEY [EAEWEY, reference compound] | – | Soluble peptides |
| GGGGGGGG [GGGGGGGG] | – | Insoluble peptides |
| YYYYYY [YYYYYY] | – | Insoluble peptides |

More lines, now with the values ahead:

| Peptide category (substantially water-insoluble or soluble) [1] | Peptide category (substantially water-insoluble or soluble) [2] | Compound |
| --- | --- | --- |
| Insoluble peptides | – | NCC(=O)NCC(=O)NCC(=O)NCC(=O)NCC(=O)NCC(=O)O [GGGGGG] |
| – | Soluble peptides | GSGGSG [GSGGSG] |
| – | Soluble peptides | VEWEME [VEWEME, reference compound] |
